# Data as given in article PMC10517462, “Small molecule targeting of the p38/Mk2 stress signaling pathways to improve cancer treatment” (BMC Cancer, 2023).
# Tests used:
# NCI-H69 cells = assay: FACS-based cell cycle analysis; set-up: species or system human; conditions: single treatment, increasing dose
# Procedure: The cells were grown in 12 well plates (Scientific Laboratory Supplies Limited, UK) in RPMI 1640 (Gibco, UK) supplemented with 10% FBS (Autogen Bioclear, UK) and 10,000 U/ml penicillin and 10 mg/ml streptomycin (Sigma, UK) at 37 °C under 5% CO2 and treated with 10, 20, 50, 100 and 150 µM of DNA damaging agent etoposide (VP-16) (Sigma, UK) in the presence or absence of p38MAPK inhibitor SB203580 (Tocris Chemical Co., UK) or MK2 inhibitor MK2.III (Merck, UK) in concentrations of 0, 0.3125, 0.625, 1.25, 2.5, and 5.0 µM. Etoposide, SB203580 and MK2.III were all dissolved in 0.2% of DMSO before use. Cells treated only with the carrier molecule DMSO (0.2%) served as a control.
# Viability analysis was performed by staining with the […], stoichiometric DNA stain DRAQ7 (640 or 633 nm excitation and 670 nm emission; Biostatus Limited). After 48-h treatment with DNA damaging agents and/or inhibitors, cells were washed once with RPMI 1640 and resuspended in 1 ml culture media at a concentration of less than 5 × 10^5/ ml. Cells were stained with 20 µM of DRAQ7 and incubated at 37 °C for 10 min before FACS Calibur cytometer analysis. Fluorescent signals were amplified using linear mode. Cell cycle analysis was performed either by staining DRAQ7 or Propidium Iodide (PI). Cells were stained with 20 µM of DRAQ7 and incubated at 37 °C for 10 min before analysis on a FACSCalibur cytometer. […]
# [1] = Pharmacokinetics of MK2.III in CD-1 mice (HPLC-MS/MS); assay type: in vivo, CD-1 mouse
# Procedure: We investigated the pharmacokinetics (PK) and bioavailability of small molecules (MK2.III) with intraperitoneal and intravenous injection before studying its tumor suppressor properties in combination with DNA-damaging agents. For this set of experiments CD-1 mouse line (male,7 weeks, body weight of 23–25 g, n = 198, Charles River) was used with a one-time intraperitoneal injection (IP) of 2, 10, and 50 mg/kg doses of the MK2.III or 2 mg/kg intravenous injection (IV) of the same drug. The small molecule was prepared using PBS containing 10% DMSO. MK2.III was isolated from mouse serum using protein settling method with acetonitrile and drug concentrations were detected using HPLC – MS/MS.
# Blood samples were obtained from the retro-orbital sinus (at […] for IV groups; at […] for IP groups, respectively) in polypropylene tubes containing 20 μl of 5% EDTA. Blood plasma was separated by centrifugation at 1500 g for 10 min and was stored at -80 °C until analysis. Data were obtained from six animals per time.
# An Agilent 1260 Infinity system, a hybrid triple-quadrupole mass spectrometer, and QTRAP 5500 electrospray ionization were used for determining the MK2.III concentration in blood plasma. Separations were achieved using a YMC Triart C18 50 × 2,1 mm, 1,9 μm column. The mobile phase consisted of A (0.1% aqueous formic acid) and B (0.1% formic acid in acetonitrile). The gradient elution t = 0, A:B 95:5; t = 2 min A:B 5:95; t = 2.1 A:B 5:95; t = 2.2 A:B 95:5; t = 2.8 A:B 95:5; flow rate was 0.5 mL min − 1; Retention time—2.8 min. The injection volume was 2 μL. The temperature of the column was set at 40 °C. Tolbutamide was selected as an internal standard. Thawed plasma (45 μL) was transferred to a microtube (1.1 mL volume), treated with a standard solution (5 μL) of the analytes in acetonitrile: water (1:1), stirred on a vortex mixer for 10 s, treated with tolbutamide solution (200 ng/ml), stirred again on the vortex mixer for 10 s, and then proteins were precipitated in the cold at + 4 °C for 15 min, centrifuged for 10 min at 1500 g. The supernatant (150 µl) was transferred to a clean 96-well plate for HPLC–MS/MS analysis. Samples were stored at a temperature not exceeding -70 °C until analysis. The calculation of pharmacokinetic parameters was performed by using Phoenix® WinNonlin® software, version 6.3 (Pharsight Corp., Cary, NC, USA).
# [2] = tested on: SW480 colorectal cancer cell line; assay: CCK8 cell viability assay, SW480; assay type: cell-based, human; conditions: MK2.III 1 µM alone, 24 h
# Procedure: To assess the effect of MK2.III kinase inhibitor and the etoposide (VP-16) on the viability of different cancer cell lines, cells were seeded in 96-well plates in a concentration of 5000 cells per well. After 12 h, etoposide and 1 μM MK2.III diluted in culture media were added into the wells for 24 h. NCI-H69 cells were exposed to a series of etoposide concentrations from 20 μM to 150 μM. MDA-MB-231, SW 620, and SW 480 cell lines were incubated with 150 μM etoposide. After treatment, 10 μL of the CCK-8 reagent (96992, Sigma) was added to each well for 1 h followed by optical density measurement at 450 nm using hybrid plate reader Synergy H1.
# [3] = 2 mg/kg intraperitoneal, mice serum
# [4] = 10 mg/kg intraperitoneal, mice serum
# [5] = 50 mg/kg intraperitoneal, mice serum
smiles,measurement,setting,value
O=C1NCCc2[nH]c(-c3ccnc(-c4cnc5ccccc5c4)c3)cc21 [MK2.III],"Effect on cell cycle profile, single agent",NCI-H69 cells,little effect on the cell cycle profile
same,AUClast,[1]; [3],"1,99 hr*ng/ml"
same,Cmax,[1]; [3],"2,15 ng/ml"
same,MRTlast,[1]; [3],"1,28 hr"
same,Tmax,[1]; [3],2 h
same,Highest concentration of the drug in serum,"[1]; 2 mg/kg intravenous, at the time of the injection",11 ng/mL
same,Serum concentration,"[1]; 2 mg/kg intravenous, one-hour interval",2.15 ng/mL
same,AUCinf,[1]; [4],203 ng·h/mL
same,AUClast,[1]; [4],130 ng·h/mL
same,Cl/F,[1]; [4],821 mL/min/kg
same,Cmax,[1]; [4],"38,3 ng/ml"
same,Kel,[1]; [4],"0,05 1/hr"
same,MRTinf,[1]; [4],"21,7 hr"
same,MRTlast,[1]; [4],"8,59 hr"
same,T1/2,[1]; [4],"14,4 hr"
same,Tmax,[1]; [4],"0,5 hr"
same,Vz/F,[1]; [4],1027 L/kg
same,AUCinf,[1]; [5],548 ng·h/mL
same,AUClast,[1]; [5],227 ng·h/mL
same,Cl/F,[1]; [5],1520 mL/min/kg
same,Cmax,[1]; [5],"42,4 ng/ml"
same,Kel,[1]; [5],"0,02 1/hr"
same,MRTinf,[1]; [5],"42,3 hr"
same,MRTlast,[1]; [5],"10,3 hr"
same,T1/2,[1]; [5],"28,3 hr"
same,Tmax,[1]; [5],"0,5 hr"
same,Vz/F,[1]; [5],3718 L/kg
same,Cmax,"[1]; higher doses (10 and 50 mg/kg) intraperitoneal, within 30 min after injection",around 40 ng/ml
same,Linearity of pharmacokinetics,"[1]; range of 2-50 mg/kg dose, intraperitoneal",does not represent linearity
same,Effect of single agent on viability,[2],does not affect the viability
